Laboratory results: patent US6242449A, “3-benzoylindole derivatives and drugs containing the same” (Zeria Pharmaceutical Co., Ltd., priority 1997, dated 2001)
Counter-ions that a name gives are not always drawn.

Assays:
α1 -adrenergic receptor [1] = biological target: T1, α1 -adrenergic receptor (Oryctolagus cuniculus, UniProt O02824); experiment: α1-Adrenergic receptor blocking action, rabbit urethra smooth muscle strips (phenylephrine contraction); assay type: cell-based
T1 construct: Transverse smooth muscle strips were prepared; from tissue; host or cells: rabbit prostate, transverse smooth muscle strips
T1 sequence (O02824 1-466): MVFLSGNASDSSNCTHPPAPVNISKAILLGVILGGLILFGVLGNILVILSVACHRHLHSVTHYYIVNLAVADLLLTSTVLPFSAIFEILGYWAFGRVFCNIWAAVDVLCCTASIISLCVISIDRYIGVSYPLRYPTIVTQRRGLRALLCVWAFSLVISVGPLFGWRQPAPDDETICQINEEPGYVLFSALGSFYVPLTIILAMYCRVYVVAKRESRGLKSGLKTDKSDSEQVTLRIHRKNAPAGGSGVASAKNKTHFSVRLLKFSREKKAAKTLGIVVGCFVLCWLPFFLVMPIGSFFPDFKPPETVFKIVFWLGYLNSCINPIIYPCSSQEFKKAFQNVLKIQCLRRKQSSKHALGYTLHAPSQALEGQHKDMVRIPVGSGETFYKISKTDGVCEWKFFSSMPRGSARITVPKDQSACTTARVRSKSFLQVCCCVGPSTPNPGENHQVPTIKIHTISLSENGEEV
Description: (§1) Rabbits were sacrificed by exsanguination, and in each rabbit the urethra and prostate were isolated from the lower urinary tract system. Transverse smooth muscle strips were prepared. Each strip was suspended in a 37° C. Krebs-solution-containing organ bath which had been bubbled with 95% O2 and 5% CO2. Isometric contraction under a resting tension of 1 g was recorded with an isometric transducer (TB-651T, Nihon Koden) on a thermal pen-type recorder (RECTI HORIZ 8K, Nihon Denki San'ei).
(§2) The strip was allowed to stand for equilibration for 60 minutes, and contractions were elicited by a certain concentration of phenylephrine (10^-5 M). The organ bath was washed with a nutrient liquid. Thereafter, the above procedure was repeated at 60-minute intervals until constant contraction responses were obtained. Subsequently, dose-response curves were obtained by administration of phenylephrine in an accumulative manner (10^-7 to 3×10^-4 M). After the strips were washed and then rested for 60 minutes, the strips were treated with a test drug solution (i.e., DMSO solution containing the test drug; 10^-7 to 10^-5 M) for 30 minutes, to thereby obtain dose-response curves for phenylephrine.
(§3) The composition of the nutrient solution was as follows.
(§4) In all cases, 10^-5 M propranolol (β-adrenaline antagonist) was administered 10 minutes before administration of the drug.
(§5) The efficacy of each test drug in terms of α1 -adrenergic receptor blocking action was assessed from calculation of pA2 (inverse of logarithm of the mole concentration of antagonist which requires, in the presence of an antagonist, twice the concentration of an agonist that provides an effect equal to that obtained in the absence of an antagonist).

[2] = biological target: Testosterone 5α-reductase; experiment: Testosterone 5α-reductase inhibitory action, nuclear fraction of rat prostates; assay type: biochemical, Wistar rat; settings: rat prostate nuclear fraction, [4-^14 C]-testosterone, NADPH, pH 7.0, 60 minutes at 37° C.
Description: Male Wistar rats (age: 9-10 weeks old) were anesthetized with ether. The abdomen of each rat was median-cut to thereby remove the prostate. The isolated prostates were weighed and homogenized in 3 tissue volumes of 50 mM Tris-HCl buffer (pH 7.2) containing 0.25 M sucrose. The homogenates were filtered with gauze and centrifuged at 3,000 rpm for 10 minutes. The pellets were resuspended in a buffer as described above and the resultant suspension was used as a nuclear fraction.
The nuclear fraction of the prostates (0.1 ml), 5 mM NADPH (0.1 ml), and a test drug solution (DMSO solution containing the test drug; 0.01 ml) were added to 50 mM Tris-HCl buffer (pH 7.0; 0.78 ml). Reaction was initiated by addition of 150 μM [4-^14 C]-testosterone (0.01 ml) to the resultant solution, and the reaction mixture was incubated for 60 minutes at 37° C. After incubation, reaction was stopped by addition of ethyl acetate (4 ml), and simultaneously, the reaction mixture was subjected to extraction. The extract (3 ml) was brought to dryness through evaporation with nitrogen gas. Ethyl acetate (40 μl) was added thereto, and a 10 μl portion was applied to a silica gel thin layer plate for development with a solvent mixture of ethyl acetate and cyclohexane (1:1). After development, the plate was subjected to autoradiography, and spots attributed to testosterone, dihydrotestosterone, and other metabolites were collected by scraping. Radioactivity of the spots was counted in a liquid scintillation counter. From the total radioactivity and the radioactivity of 5α-metabolites, reaction ratio was obtained. IC50 of the compound, which represents the inhibitory activity of the test compound, was calculated from the reaction ratio of the control solvent and the reaction ratio obtained when the compound was added.

α1 -adrenergic receptor [3] = biological target: T1, α1 -adrenergic receptor; experiment: α1-Adrenergic receptor blocking action, rabbit prostate smooth muscle strips (phenylephrine contraction); assay type: cell-based
Description: as §1, §2, §3, §4, §5

[4] = rabbit urethra strips, phenylephrine 10^-7 to 3×10^-4 M, test drug 30 minutes, 10^-5 M propranolol present, read-out: Urethra (pA2) (converted)
[5] = rabbit prostate strips, phenylephrine 10^-7 to 3×10^-4 M, test drug 30 minutes, 10^-5 M propranolol present, read-out: Prostate (pA2) (converted)

**Q.** `CCc1ccc(CNc2ccc(C(=O)c3cn(CCCC(=O)O)c4ccccc34)cc2OCCCN2CCN(c3ccccc3OC)CC2)cc1` [Example 1, 4-{3-{4-(4-Ethylphenyl)methylamino-3-{3-[4-(2-methoxyphenyl)piperazin-1-yl]propoxy}benzoyl}indol-1-yl}butanoic acid hydrochloride] was tested. Which Kb (α1 -adrenergic receptor [1]) did it give?
**A.** Its Kb is 302 nM.

**Q.** And the IC50 [2]?
**A.** The IC50 was 0.7 nM.

**Q.** What about the Kb (α1 -adrenergic receptor [3]) of the same molecule?
**A.** Its Kb is 224 nM.

**Q.** Which IC50 [2] does the source give for `CCOc1ccccc1N1CCN(CCCOc2cc(C(=O)c3cn(CCCC(=O)O)c4ccccc34)ccc2NCc2ccc(C)cc2)CC1` [Example 8, 4-{3-{4-[(4-Methylphenyl)methylamino]-3-{3-[4-(2-ethoxyphenyl)piperazin-1-yl]propoxy}benzoyl}indol-1-yl}butanoic acid] here?
**A.** Its IC50 is 1 nM.

**Q.** What does the source list for `COc1ccccc1N1CCN(CCCOc2cc(C(=O)c3cn(CCCC(=O)O)c4ccccc34)ccc2NCc2ccccc2)CC1` [Example 5]?
**A.** Kb (α1 -adrenergic receptor [1]; [4]): 174 nM; Kb (α1 -adrenergic receptor [3]; [5]): 53.7 nM

**Q.** Which Kb (α1 -adrenergic receptor [1]; [4]) does the source give for `COc1ccccc1N1CCN(CCCOc2cc(C(=O)c3cn(CCCC(=O)O)c4ccccc34)ccc2NCc2ccc(C)cc2)CC1` [Example 7] here?
**A.** Its Kb is 316 nM.

**Q.** What about the IC50 [2] of the same molecule?
**A.** The IC50 was 0.86 nM.

**Q.** And the Kb (α1 -adrenergic receptor [3]; [5])?
**A.** Its Kb is 95.5 nM.

**Q.** For `CCOc1ccccc1N1CCN(CCCOc2cc(C(=O)c3cn(CCCC(=O)O)c4ccccc34)ccc2NCc2ccc(CC)cc2)CC1` [Example 10, 4-{3-{3-{3-[4-(2-Ethoxyphenyl)piperazin-1-yl]propoxy}-4-[(4-ethylphenyl)methylamino]benzoyl}indol-1-yl}butanoic acid], which IC50 [2] is on record?
**A.** The IC50 was 0.47 nM.
